From patent US4233309A, “Novel 1-substituted-3-acylpyrrole derivatives, platelet aggregation inhibitors containing them, as active ingredients, and processes for production of said derivatives” (Teijin Limited, priority 1977, dated 1980)
Like-named read-outs stand apart in the source and are kept apart here.

Tests used:
carrageenan edema = experiment: Antiinflammatory activity (carrageenan edema of rat paw, Table 5); type: in vivo, Sprangue-Dawley (SD) male rats; settings: 100 mg/kg orally, 3 h after 1% carrageenan
Method: Sprangue-Dawley (SD) male rats with a body weight of 160 to 180 g, four in each group, were used. The volume of the left leg was measured, and each of the test compounds shown in Table 5 (100 mg/kg dissolved in polyethylene glycol so as to provide a volume of 2 ml/kg) was orally administered. One hour later, 0.1 ml of 1% carrageenan (dissolved in physiological saline) as an inflammation-inducing substance was subcutaneously injected to the paw of the left hind leg. A control group was orally administered with 2 ml/kg of polyethylene glycol. As a positive control, 25 mg/kg of Ibprofen was similarly administered. Three hours after the injection of 1% carrageenan, the volume of the left leg was measured, and the ratio of edema was calculated from the volume before the administration of the carrageenan. The percent inhibition of edema in comparison with the control group was determined.

[1] = tested on: platelet aggregation (platelet-rich plasmas (PRP) of guinea pigs); experiment: Activity of inhibiting platelet aggregation in vitro, guinea pig PRP, sodium arachidonate as aggregating agent (Table 1); type: cell-based, Hartley-strain male guinea pigs; settings: Cavia porcellus, sodium arachidonate 0.03 mM final, 37° C., final concentration, read-out: IC50 (minimum concentration of drug which showed a percent inhibition of more than 50%)
Method: Some 1-substituted-3-acylpyrrole derivatives and other drugs were tested for platelet aggregation inhibiting activities in vitro using platelet-rich plasmas (PRP) of man and guinea pigs. The results are shown as minimum concentration of drugs which inhibit more than 50% of platelet aggregation induced by several aggregating agents.
In experiments with PRP of guinea pigs, sodium arachidonate (final concentration 0.03 mM) was used as an aggregating agent. In experiments with human PRP, sodium arachidonate (final concentration 0.1 mM), collagan suspension (final concentration 10 μg/ml), epinephrine solution (final concentration 20 μg/ml; for secondary aggregation), an epinephrine solution (final concentration 2 μg/ml; for primary aggregation) and ADP (final concentration 5 μM) were used as aggregating agents.
In an experiment with guinea pig PRP, citrated blood (containing 0.38% sodium citrate as a final concentration) was withdrawn by cardiac puncture from Hartley-strain male guinea pigs having a body weight of 350 to 600 g. The citrated blood was centrifuged at 1,000 rpm for 10 minutes at room temperature, and the supernatant platelet suspension (PRP) was separated.
The PRP was stored at room temperature, and used as soon as possible. Those which had been stored for more than 4 hours after preparation were not used.
For each test, a drug is dissolved in dimethylsulfoxide to a concentration of 10 mg/ml, and diluted with physiological saline to form 1 ml each of solutions having a concentration of 2500 μg/ml, 1000 μg/ml, 750 μg/ml, 500 μg/ml, 250 μg/ml and 100 μg/ml. A compound having a free carboxylic acid as a residue such as indomethacine and Ibprofen was dissolved in 0.1 M NaHCO3 to form a sodium salt solution having a concentration of 10 mg/ml. Then, the solution was diluted with physiological saline in the same way as above to form a test drug solution.
Arachidonic acid (99% pure, a product of Sigma Co., Ltd.) was dissolved in 0.1 M NaHCO3, and a 3.3 mM solution of sodium arachidonate was prepared. The solution was diluted with physiological saline to a concentration of 1 mM and used in the experiments. The 3.3 mM solution was stored in a refrigerator as a stock solution, and the 1 mM solution was newly prepared from the stock solution every time it was used.
Physiological saline (50 μl) and 50 μl of the aggregating agent solution were added to 400 μl of PRP which had been pre-warmed and stirred at 37° C. in a quvett set in a holder of an aggregometer. Platelet aggregation was thus initiated, and the change of light transmittance through a stirred platelet suspension was recorded for 3 minutes by a recorder joined to the aggregometer. An increase in transmittance after 3 minutes (T0) was used as a parameter of the rate of platelet aggregation in control experiments.
To 400 μl of PRP in a quvett was added 50 μl of a test drug solution. The mixture was pre-incubated and stirred for 2 minutes at 37° C. Then 50 μl of the aggregating agent was added to drug containing PRP and again aggregation responses were recorded as increases in light transmittance after 3 minutes (T1) in the same way as in (1) above. Percent inhibition was calculated from the formula [formula]
For the above in vitro test for the inhibition of platelet aggregation, reference may be had to H. M. Davis, J. Phyllis, K. Paul and W. Terry: Thromb. Res. 11, 217-226 (1977) and R. E. Anderson and J. G. Foulks: Thromb. Haemos. 36, 343-359 (1976).

[2] = tested on: biosynthesis of prostaglandins (microsomes of the seminal vesicle of bovine); experiment: Inhibitory effect on prostaglandin biosynthesis in vitro (Table 3); type: biochemical; settings: 4 μg/ml sodium arachidonate, bioassay on rat fundus stomach strips
Method: Sprangue-Dawley rats (male, 180-200 g) were fasted overnight, and killed by blow on the head. The stomach was isolated, and fundus stomach strips were prepared. The smooth muscle strips were perfused with Krebs-Hensleit solution (gassed with 95% O2 +5% CO2 gas) of 37° C. at a rate of […]. The Krebs-Hensleit solution contained 0.1 μg/ml of atropine, 0.1 μg/ml of phenoxybenzamine, 3 μg/ml of propranolol, 0.1 μg/ml of tripelennamine, and 0.2 μg/ml of methylsergide to prevent the effect of smooth muscle contracting substances, and 1 μg/ml of indomethacine to inhibit the biosynthesis of prostaglandin by the smooth muscles. Then, 150 μl of a reaction solution containing biologically synthesized prostaglandin was added to the perfusion solution, and the amount of the biologically synthesized prostaglandin was measured from the contraction of the smooth muscles. The contraction of the smooth muscles was recorded on a recorder using an isotonic transducer.
The reaction solution containing biologically synthesized prostaglandin was prepared in the following manner.
To 0.4 mg/ml of microsomes of the seminal vesicle of bovine were added 5 mM of L-tryptophan, 0.025 μM of bovine hemoglobin and 3 mμ of glutathione as cofactors. The mixture was incubated together with each of the test compounds shown in Table 4 at 37° C. for 2 minutes, and immediately then, 4 μg/ml of sodium arachidonate was added. The mixture was further incubated at 37° C. for 10 minutes, and immediately then, the prostaglandin activity of the reaction solution was measured by bioassay.
The microsomes of the seminal vesicle of bovine had been prepared by suspending microsomes of the seminal vesicle of bovine (a product of Miles Laboratories, Inc.) in a 50 mM Tris.HCl buffer (pH 7.4) using a glass homogenizer, and stored in ice water prior to use.
ID50 denotes the concentration of each test compound required to inhibit the biosynthesis of prostaglandins by 50%.

[3] = tested on: platelet aggregation (guinea pig PRP, extra vivo); experiment: Inhibitory effect of compounds on platelet aggregation in extra vivo (Table 4); parameters: species or system Hartley-strain guinea pigs; settings: Cavia porcellus, 100 mg/kg, route PS [sic], 1 h
Method: The effect of the compounds shown in Table 4 on platelet aggregation was assessed using guinea pig in extra vivo.
Each of the test compounds was dissolved in propylene glycol so that its concentration became 100 mg/ml (dosage corresponded to 100 mg/kg) and 30 mg/ml (dosage corresponded to 30 mg/kg). The drug solution was administered either orally or subcutaneously to Hartley-strain guinea pigs (3 per group) having a body weight of 300 to 350 g. As a control, propylene glycol was administered. One hour after the administration, citrated blood was taken out by cardiac puncture, and centrifuged to obtain PRP (see Example 67).
In the case of oral administration, the animals had been fasted overnight.
Into a quvett set in a holder of an aggregometer and prewarmed at 37° C. with stirring, was put 450 μl of the above PRP, and then 50 μl of an aggregating agent was added. The aggregation curve was recorded for an additional 3 minutes, and an increase in light transmittance through PRP after 3 minutes (TB) was recorded (see Example 67). As a control, an increase of transmittance of PRP taken from a guinea pig group administered with propylene glycol alone (TA) was recorded in the same way above. The percent inhibitions were calculated in accordance with the following equation. [formula]
As the aggregating agent, sodium arachidonate (a final concentraton of 0.03 mM) and a collagen suspension (a final concentration of 5 μg/ml) were used.
The percent inhibitions in the above table are averages of three guinea pigs. For details of the above extra vivo test about inhibition of platelet aggregation, the literature references described in Example 67 may be referred to.

In the case of `CC(=O)OCC(C)n1c(C)cc(C(=O)c2ccccc2)c1C` (centres unmarked) [Compound 306, 2-(3-benzoyl-2,5-dimethylpyrrol-1-yl)-2-methylethyl acetate], the “Percent inhibition of edema” value (carrageenan edema) is reported as 16%, the IC50 [1] is reported as 7.5 µg/mL and the “ID50 (concentration required to inhibit the biosynthesis of prostaglandins by 50%)” value [2] is reported as 5.6 µg/mL. For the same compound, the inhibition at 100 mg/kg ([3]; collagen 5 μg/ml, read-out: Percent inhibition of platelet aggregation, collagen) was 34% and the inhibition at 100 mg/kg ([3]; sodium arachidonate 0.03 mM, read-out: Percent inhibition of platelet aggregation, sodium arachidonate) was 62%.
